US20130053392A1, “CARBONIC ANHYDRASE INHIBITORS” (priority 2010, published 2013)
“Also recorded” adds a separate entry of the source.

Tests used:
[1] = tested on: FaDU head and neck cells; assay: FaDU spheroid clonogenicity assay with doxorubicin or radiation; type: cell-based; details: listed as S4
Method: These studies were undertaken using tumour cells grown into 3-D spheroid cultures that have a natural oxygen gradient. Spheroids of FaDU head and neck cells were generated and treated for 24 h with S4 or vehicle alone; doxorubicin alone or in combination with S4; and S4 or vehicle plus 10 Gy radiotherapy given at the end of the 24 h exposure. Spheroids were treated with trypsin to generate single cell suspensions and plated at various dilutions. Clonogenecity was then recorded per spheroid.
Spheroids were generated by the “liquid overlay technique”. […] The coating prevents the cells from forming monolayers and gives rise of spheroid growth.
The spheroids were grown in a CO2-incubator for 5-7 days. Thereafter, the spheroids were collected and grown in a spinner flask for an additional 5-7 days until they reached a diameter of ˜500-750 μm (10%-0.1% O2 gradient in spheroid).
Spheroids were pooled for the following treatments: • 1. Vehicle for 24 hours • 2. […] Doxorubicin (10 μM) for 24 h • 4. Vehicle for 24 hours followed by 10 Gy radiotherapy • 5.
Directly thereafter, spheroids were digested to single cells using trypsin/EDTA and the cells seeded at a range of concentration in culture plates (clonogenicity assay).
After about a week the cells were stained with methylene blue and the number of colonies counted.

[2] = Proliferation/viability assays; type: cell-based; details: 33 μM
Method: CA IX inhibition, either using a genetic approach (knock down) or pharmacological (S4) results in a sensitization to irradiation. Genetically or pharmacologically, this sensitization occurs to a similar extent. Pharmacological testing was performed at 33 μM, a concentration selected based on no-toxicity under normoxic conditions based on proliferation/viability assays.

[3] = tested on: HT29 colon carcinoma cells; assay: Mouse xenograft model, HT29 colon carcinoma; type: in vivo, mice
[4] = tested on: MDA231-EGFP cells; assay: Orthotopic MDA231-EGFP mammary fat pad tumour and lung clonogen (metastasis) model; type: in vivo, mice; details: 10 mg/kg, 5 days on, 2 days off
Method: 16 mice were implanted with 0.1 ml of a 5×10^7/ml suspension of MDA231-EGFP cells into the mammary fat pad of anaesthetized mice. The cells were prepared in a 1:1 mix of Matrigel: serum-free RMPI.
Mouse condition was monitored daily and tumour volumes recorded at least 3× per week.
Once tumours reached approximately 100 mm^3, they were randomised in to the following treatment groups:
Group 1: 8 mice implanted with MDA231-EGFP cells received vehicle administered in a “5 days on, 2 days” off schedule (ie Mon-Fri dosing each week).
Group 2: 8 mice implanted with MDA231-EGFP cells received CA-IX inhibitor S4 administered at 10 mg/kg dose in a “5 days on, 2 days” off schedule (ie Mon-Fri dosing each week).
Treatment was continued until primary tumours reached a designated endpoint volume of approx 1000 mm^3.
Mouse health and condition was monitored throughout and weights recorded up to 3 times per week.
Before sacrifice Pimonidazole at 0.2 ml of 10 mg/ml solution i/p (2 h before) and 0.1 ml of a 6 mg/ml Hoechst solution (iv) (1 minute before) were administered. Tumour and lungs were rapidly removed for processing.
Clonogens were assessed in lungs using a clonogenic assay. About a quarter of the total lung tissue was taken and weighed. […] Clones were then stained with bromophenol blue and counted, calculating the number per mg of tissue following correction for the dilution.

[5] = tested on: EV/2 CA IX expressing cells (HT-29); assay: Clonogenic survival after irradiation, EV/2 cells; type: cell-based, human; details: S4 33 μM 23 h
Method: (§1) Cells were incubated with S4 1 h after the start of the anoxic/normoxic exposure, during 23 h. […] After incubation, cells were irradiated on ice (MCN 225 industrial X-ray tube (Philips, Eindhoven, NL) at 225 kV and 10 mA under the respective oxygen concentrations using different doses (Normoxia: 0, 2, 4, 6, and 8 Gy; Anoxia: 0, 4, 8, 12 and 16 Gy). After irradiation, cells were washed, trypsinized and plated for the clonogenic survival assay and incubated under standard culture conditions until colonies were formed (14 days). Colonies were fixed and stained with 4% methylene blue in 70% ethanol. Plating efficiency was determined by counting colonies consisting of >50 cells and correcting for the number of cells seeded.

[6] = tested on: 94/1 CA IX knock down cells (HT-29); assay: Clonogenic survival after irradiation, 94/1 cells; type: cell-based, human
Method: as §1

[7] = prior art compound (Winum et al); cited from earlier work

Compound	clonogenic survival, combination with radiation ([1]; S4 33 μM 24 h plus 10 Gy radiotherapy)	clonogenic survival, combination with doxorubicin ([1]; S4 33 μM plus doxorubicin 10 μM, 24 h)	clonogenicity per spheroid, inhibitor alone ([1]; S4 alone (33 μM), 24 h, FIG. 9)	toxicity under normoxic conditions [2]	volume of the tumour versus control ([3]; HT29 xenograft, FIG. 3)	reduction of the tumor growth ([3]; highest dosage of CA inhibitor, HT29 xenograft in nude CD1 mice) [%]	number of metastatic MDA-231 clonogens (colonies per gram of lung tissue) versus vehicle ([4]; FIG. 5)	tumour volume against time versus vehicle ([4]; orthotopic MDA-231 tumours, FIG. 4)	sensitization to irradiation, 24 h anoxia ([5]; anoxia, 8, 12 and 16 Gy, FIG. 18)	sensitization to irradiation, normoxic exposure ([5]; normoxia, 0-8 Gy)	sensitization to irradiation, normoxic exposure ([6]; S4 33 μM 23 h, normoxia)	effect on radiosensitivity of knock down cells ([6]; S4 33 μM pretreatment)	stability in solution [7]
Cc1cc(C)cc(NC(=O)Nc2ccc(OS(N)(=O)=O)cc2)c1 [Compound 3p, 4-[(3,5-dimethylphenyl)ureido]phenyl sulfamate]	reduced colongenic survival compared with either agent alone; also recorded: significant reduction in colony formation per spheroid	reduced colongenic survival compared with either agent alone; also recorded: significant reduction in colony formation per spheroid	little effect on growth of cells isolated from the spheroids; also recorded: little effect on cell growth	no-toxicity	significant reduction in the volume of the tumour	30	significantly fewer metastatic clonogens	little or no effect on the growth of the orthotopic MDA-231 tumours	a sensitization to irradiation was observed	no sensitization to irradiation was demonstrated	no sensitization to irradiation was demonstrated	had no effect on the radiosensitivity	–
NS(=O)(=O)Oc1ccc(Cl)cc1 [4-chlorophenyl sulphamate]	–	–	–	–	–	–	–	–	–	–	–	–	relatively unstable in solution
